The text below walks through data of publication PMC7476666 (Journal of the American Chemical Society, 2016).

Experiment [1] deals with T1, EphB3 WT (Homo sapiens, UniProt P54753).
T1 sequence (P54753 34-998): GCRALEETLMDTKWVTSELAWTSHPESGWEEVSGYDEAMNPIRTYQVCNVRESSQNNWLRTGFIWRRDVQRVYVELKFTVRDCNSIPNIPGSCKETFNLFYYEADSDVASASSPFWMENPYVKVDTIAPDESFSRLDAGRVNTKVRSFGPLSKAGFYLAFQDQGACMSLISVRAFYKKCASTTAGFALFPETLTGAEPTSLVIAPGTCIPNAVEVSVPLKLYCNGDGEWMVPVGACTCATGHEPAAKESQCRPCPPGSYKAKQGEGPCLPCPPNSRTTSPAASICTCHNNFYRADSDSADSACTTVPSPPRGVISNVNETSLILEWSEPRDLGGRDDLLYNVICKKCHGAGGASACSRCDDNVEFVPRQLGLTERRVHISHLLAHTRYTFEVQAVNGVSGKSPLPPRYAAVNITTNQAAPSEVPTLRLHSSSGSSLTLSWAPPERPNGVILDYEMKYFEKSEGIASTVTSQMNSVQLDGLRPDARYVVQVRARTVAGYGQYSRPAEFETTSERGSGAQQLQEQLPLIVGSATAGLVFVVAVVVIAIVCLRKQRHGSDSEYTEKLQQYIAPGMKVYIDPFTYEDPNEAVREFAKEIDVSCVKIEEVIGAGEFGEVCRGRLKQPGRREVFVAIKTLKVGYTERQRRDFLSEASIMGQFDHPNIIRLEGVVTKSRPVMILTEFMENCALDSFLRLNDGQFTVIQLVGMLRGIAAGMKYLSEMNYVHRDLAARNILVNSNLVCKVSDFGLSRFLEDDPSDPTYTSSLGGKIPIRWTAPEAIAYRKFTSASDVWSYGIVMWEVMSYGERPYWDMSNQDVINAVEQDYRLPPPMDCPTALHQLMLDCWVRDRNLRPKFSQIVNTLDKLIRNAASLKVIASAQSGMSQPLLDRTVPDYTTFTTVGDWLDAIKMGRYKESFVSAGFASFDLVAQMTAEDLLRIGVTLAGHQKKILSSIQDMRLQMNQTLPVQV
Briefly: EphB3 autophosphorylation in transfected HEK293 cells. To be noted: read-out: IC50, EphB3 autophosphorylation in cells. It counts as cell-based.

For experiment [2], the target named is T2, EphB3 (Homo sapiens, UniProt P54753).
T2 sequence (P54753 34-998): T1 sequence (P54753 34-998)
The experiment is described as follows: Competition with probe 10 for EphB3 labeling in cell lysate. It is filed as binding.

Experiment [3] has as its target T2, EphB3. Briefly: Competition / pulse-chase with probe 10 for EphB3 occupancy in HEK293 cells.

For the compound `Cc1ccc(C(=O)Nc2cccc(C(F)(F)F)c2)cc1Nc1nc(-c2cccnc2)nc2c1cnn2C` [BHG-712], the IC50 in experiment [1] was determined as 0.32 µM; in experiment [3] (read-out: IC50 for probe labeling of EphB3, competition with 10 (10 nM) in cells), 0.26 µM. Moreover, the “time to engage EphB3 (preincubation required to compete off labeling by 10)” value in experiment [2] is “over 10 min”. In experiment [3] (live cells), the “time to engage EphB3 (preincubation required to block labeling by 10)” value is listed as “over 10 min”.

As a reminder, the IC50 is the concentration at which inhibition is half-maximal.
